Target: Dihydroorotate dehydrogenase (quinone), mitochondrial (Homo sapiens, UniProt Q02127)
Sequence (Q02127 whole entry): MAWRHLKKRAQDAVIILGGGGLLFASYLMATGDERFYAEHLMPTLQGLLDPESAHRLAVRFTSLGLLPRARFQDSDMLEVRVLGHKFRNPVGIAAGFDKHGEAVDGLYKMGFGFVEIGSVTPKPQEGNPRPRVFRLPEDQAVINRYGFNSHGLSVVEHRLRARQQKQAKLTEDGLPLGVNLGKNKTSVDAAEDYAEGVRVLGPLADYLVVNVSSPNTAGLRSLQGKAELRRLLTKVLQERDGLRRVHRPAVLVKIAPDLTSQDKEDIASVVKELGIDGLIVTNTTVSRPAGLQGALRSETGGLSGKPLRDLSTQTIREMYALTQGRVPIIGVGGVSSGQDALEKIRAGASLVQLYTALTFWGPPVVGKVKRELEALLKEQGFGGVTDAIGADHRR
Method: Briefly, the hDHODH concentration was adjusted in a way that an average slope of approximately 0.2 AU/min served as the positive control (e.g. without inhibitor). The standard assay mixture contained 60 μM 2,6-dichloroindophenol, 50 μM decylubiquinone and 100 μM dihydroorotate. The hDHODH enzyme with or without at least six different concentrations of the compounds was added and measurements were performed in 50 mM TrisHCl, 150 mM KCl and 0.1% Triton X-100 at pH 8.0 and at 30° C. The reaction was started by adding dihydroorotate and measuring the absorption at 600 nm for 2 min. For the determination of the IC50 values, each data point was recorded in triplicate. For the determination of the inhibitory constant Ki, the KM values for DHO and decylubichinon were determined. Afterwards, the compounds were diluted in a dilution series depending on their IC50 values in DMSO.

| SMILES | Ki [µM] |
| --- | --- |
| O=C(Nc1c(F)c(F)c(-c2cccc(OC(F)(F)F)c2)c(F)c1F)c1ccsc1C(=O)O [US20240199535, Example 4] | 0.0037 |
| O=C(O)C1=C(C(=O)Nc2ccc(-c3cccc(OC(F)F)c3)cc2F)CCC1 [US20240199535, Example 5] | 1.82 |

— BindingDB's records for patent US20240199535 (Immunic, 2024)
